Reference: US20090105270A1, “Kinase inhibition and anticancer therapy” (priority 2007, published 2009)

Columns and labels:
[1] = biological target: T1, Axl(h) (Homo sapiens, UniProt P30530); assay: Upstate kinase activity inhibition assay Axl(h); format: biochemical; conditions: 40 min; read-out: percentage of enzyme activity that remains
T1 construct: purchased Upstate (KinaseProfiler service)

[2] = biological target: T2, BTK(h) (Homo sapiens, UniProt Q06187); assay: Upstate kinase activity inhibition assay BTK(h); format: biochemical
T2 construct: purchased Upstate (KinaseProfiler service)

[3] = biological target: T3, CDK2/cyclinA(h) (Homo sapiens, UniProt P24941); assay: Upstate kinase activity inhibition assay CDK2/cyclinA(h); format: biochemical; conditions: 0.2 μM Compound E
T3 construct: purchased Upstate (KinaseProfiler service)

[4] = biological target: T4, CK2α2(h) (Homo sapiens, UniProt P19784); assay: Upstate kinase activity inhibition assay CK2α2(h); format: biochemical; conditions: 40 min; read-out: percentage of enzyme activity that remains
T4 construct: purchased Upstate (KinaseProfiler service)

[5] = biological target: T5, EphA5(h) (Homo sapiens, UniProt P54756); assay: Upstate kinase activity inhibition assay EphA5(h); format: biochemical; conditions: 4 μM Compound E
T5 construct: purchased Upstate (KinaseProfiler service)

[6] = biological target: T6, EphA7(h) (Homo sapiens, UniProt Q15375); assay: Upstate kinase activity inhibition assay EphA7(h); format: biochemical; conditions: 40 min; read-out: percentage of enzyme activity that remains
T6 construct: purchased Upstate (KinaseProfiler service)

[7] = biological target: T7, EphB4(h) (Homo sapiens, UniProt P54760); assay: Upstate kinase activity inhibition assay EphB4(h); format: biochemical; conditions: 40 min; read-out: percentage of enzyme activity that remains
T7 construct: purchased Upstate (KinaseProfiler service)

[8] = biological target: T8, Fer(h) (Homo sapiens, UniProt P16591); assay: Upstate kinase activity inhibition assay Fer(h); format: biochemical; conditions: 40 min; read-out: percentage of enzyme activity that remains
T8 construct: purchased Upstate (KinaseProfiler service)

[9] = biological target: T9, Hck(h) (Homo sapiens, UniProt P08631); assay: Upstate kinase activity inhibition assay Hck(h); format: biochemical; conditions: 40 min; read-out: percentage of enzyme activity that remains
T9 construct: purchased Upstate (KinaseProfiler service)
T9 sequence (P08631 whole entry): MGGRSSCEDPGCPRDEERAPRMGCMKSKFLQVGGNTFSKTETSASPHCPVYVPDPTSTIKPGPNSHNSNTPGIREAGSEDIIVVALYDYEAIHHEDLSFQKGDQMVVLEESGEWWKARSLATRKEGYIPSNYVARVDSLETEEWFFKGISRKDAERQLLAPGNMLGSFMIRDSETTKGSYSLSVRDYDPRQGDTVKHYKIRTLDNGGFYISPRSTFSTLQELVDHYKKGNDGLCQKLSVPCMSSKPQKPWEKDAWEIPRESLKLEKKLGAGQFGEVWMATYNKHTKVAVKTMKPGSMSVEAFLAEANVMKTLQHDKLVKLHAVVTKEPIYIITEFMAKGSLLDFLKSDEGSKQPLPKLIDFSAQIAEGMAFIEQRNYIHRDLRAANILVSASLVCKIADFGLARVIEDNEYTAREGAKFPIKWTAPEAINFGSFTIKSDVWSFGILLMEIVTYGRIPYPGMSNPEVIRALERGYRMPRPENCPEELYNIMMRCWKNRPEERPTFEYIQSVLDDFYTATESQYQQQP

[10] = biological target: T10, JNK3(h) (Homo sapiens, UniProt P53779); assay: Upstate kinase activity inhibition assay JNK3(h); format: biochemical
T10 construct: purchased Upstate (KinaseProfiler service)

[11] = biological target: T11, LIMK1(h) (Homo sapiens, UniProt P53667); assay: Upstate kinase activity inhibition assay LIMK1(h); format: biochemical; conditions: 40 min; read-out: percentage of enzyme activity that remains
T11 construct: purchased Upstate (KinaseProfiler service)

[12] = biological target: T12, MAPK2(h) (Homo sapiens, UniProt P28482); assay: Upstate kinase activity inhibition assay MAPK2(h); format: biochemical; conditions: 40 min; read-out: percentage of enzyme activity that remains
T12 construct: purchased Upstate (KinaseProfiler service)

[13] = biological target: T13, MRCKβ(h) (Homo sapiens, UniProt Q9Y5S2); assay: Upstate kinase activity inhibition assay MRCKβ(h); format: biochemical; conditions: 40 min; read-out: percentage of enzyme activity that remains
T13 construct: purchased Upstate (KinaseProfiler service)

[14] = biological target: T14, p70S6K(h) (Homo sapiens, UniProt P23443); assay: Upstate kinase activity inhibition assay p70S6K(h); format: biochemical; conditions: 40 min; read-out: percentage of enzyme activity that remains
T14 construct: purchased Upstate (KinaseProfiler service)

[15] = biological target: T15, PDGFRβ(h) (Homo sapiens, UniProt P09619); assay: Upstate kinase activity inhibition assay PDGFRβ(h); format: biochemical; conditions: 40 min; read-out: percentage of enzyme activity that remains
T15 construct: purchased Upstate (KinaseProfiler service)

[16] = biological target: T16, PKBα(h) (Homo sapiens, UniProt P31749); assay: Upstate kinase activity inhibition assay PKBα(h); format: biochemical; conditions: 40 min; read-out: percentage of enzyme activity that remains
T16 construct: purchased Upstate (KinaseProfiler service)

[17] = biological target: T17, PrKX(h) (Homo sapiens, UniProt P51817); assay: Upstate kinase activity inhibition assay PrKX(h); format: biochemical; conditions: 40 min; read-out: percentage of enzyme activity that remains
T17 construct: purchased Upstate (KinaseProfiler service)
T17 sequence (P51817 whole entry): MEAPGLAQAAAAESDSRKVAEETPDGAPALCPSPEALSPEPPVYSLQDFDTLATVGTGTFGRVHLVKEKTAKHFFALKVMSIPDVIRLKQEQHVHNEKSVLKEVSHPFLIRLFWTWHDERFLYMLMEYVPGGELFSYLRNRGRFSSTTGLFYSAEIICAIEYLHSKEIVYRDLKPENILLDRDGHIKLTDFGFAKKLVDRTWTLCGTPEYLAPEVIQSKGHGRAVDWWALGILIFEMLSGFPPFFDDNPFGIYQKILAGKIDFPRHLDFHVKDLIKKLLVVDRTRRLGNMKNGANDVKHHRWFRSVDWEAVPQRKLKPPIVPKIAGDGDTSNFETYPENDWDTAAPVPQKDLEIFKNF

[18] = biological target: T18, WNK2(h) (Homo sapiens, UniProt Q9Y3S1); assay: Upstate kinase activity inhibition assay WNK2(h); format: biochemical; conditions: 40 min; read-out: percentage of enzyme activity that remains
T18 construct: purchased Upstate (KinaseProfiler service)

[19] = biological target: ALK4(h) (Homo sapiens, UniProt P36896); assay: Upstate kinase activity inhibition assay ALK4(h); conditions: 40 min, read-out: percentage of enzyme activity that remains
[20] = biological target: Fgr(h) (Homo sapiens, UniProt P09769); assay: Upstate kinase activity inhibition assay Fgr(h); conditions: 40 min, read-out: percentage of enzyme activity that remains
[21] = biological target: Snk(h) (Homo sapiens, UniProt Q9NYY3); assay: Upstate kinase activity inhibition assay Snk(h)
Sequence of Snk(h) (Q9NYY3 whole entry): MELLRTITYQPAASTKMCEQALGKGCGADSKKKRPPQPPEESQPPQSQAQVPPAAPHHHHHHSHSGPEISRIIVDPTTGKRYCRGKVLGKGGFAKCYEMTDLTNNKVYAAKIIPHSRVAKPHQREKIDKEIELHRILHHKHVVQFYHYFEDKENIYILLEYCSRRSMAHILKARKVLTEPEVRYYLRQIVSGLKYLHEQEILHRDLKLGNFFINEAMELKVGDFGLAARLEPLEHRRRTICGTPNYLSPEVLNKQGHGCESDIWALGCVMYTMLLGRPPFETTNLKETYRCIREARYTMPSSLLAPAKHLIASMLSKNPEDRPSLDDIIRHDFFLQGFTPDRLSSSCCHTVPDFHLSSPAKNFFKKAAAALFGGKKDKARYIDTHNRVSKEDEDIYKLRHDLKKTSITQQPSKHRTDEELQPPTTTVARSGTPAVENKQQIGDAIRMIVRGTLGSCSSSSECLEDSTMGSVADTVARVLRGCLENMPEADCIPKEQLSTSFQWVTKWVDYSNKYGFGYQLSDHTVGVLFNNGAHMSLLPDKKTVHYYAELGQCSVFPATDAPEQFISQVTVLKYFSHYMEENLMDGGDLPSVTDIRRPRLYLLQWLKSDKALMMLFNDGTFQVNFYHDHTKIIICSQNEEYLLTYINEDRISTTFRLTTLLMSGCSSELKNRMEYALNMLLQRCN

[22] = biological target: IKKβ(h) (Homo sapiens, UniProt O14920); assay: Upstate kinase activity inhibition assay IKKβ(h); conditions: 40 min, read-out: percentage of enzyme activity that remains
[23] = biological target: NEK2(h) (Homo sapiens, UniProt P51955); assay: Upstate kinase activity inhibition assay NEK2(h); conditions: 40 min, read-out: percentage of enzyme activity that remains
Sequence of NEK2(h) (P51955 whole entry): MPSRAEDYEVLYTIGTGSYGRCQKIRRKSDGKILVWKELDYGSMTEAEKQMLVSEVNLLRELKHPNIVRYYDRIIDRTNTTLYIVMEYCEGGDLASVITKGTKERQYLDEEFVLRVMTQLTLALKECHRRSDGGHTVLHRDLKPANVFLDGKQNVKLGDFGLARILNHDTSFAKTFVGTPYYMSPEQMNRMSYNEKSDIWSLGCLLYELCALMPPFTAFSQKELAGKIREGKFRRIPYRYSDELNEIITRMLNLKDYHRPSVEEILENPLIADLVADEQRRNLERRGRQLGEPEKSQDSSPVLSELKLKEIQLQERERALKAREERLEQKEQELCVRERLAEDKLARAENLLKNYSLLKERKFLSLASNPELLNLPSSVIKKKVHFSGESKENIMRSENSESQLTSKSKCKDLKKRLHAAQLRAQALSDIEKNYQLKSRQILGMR

[24] = biological target: PKBβ(h) (Homo sapiens, UniProt P31751); assay: Upstate kinase activity inhibition assay PKBβ(h); conditions: 40 min, read-out: percentage of enzyme activity that remains
[25] = biological target: FGFR3(h) (Homo sapiens, UniProt P22607); assay: Upstate kinase activity inhibition assay FGFR3(h); conditions: 40 min, read-out: percentage of enzyme activity that remains
Sequence of FGFR3(h) (P22607 23-806): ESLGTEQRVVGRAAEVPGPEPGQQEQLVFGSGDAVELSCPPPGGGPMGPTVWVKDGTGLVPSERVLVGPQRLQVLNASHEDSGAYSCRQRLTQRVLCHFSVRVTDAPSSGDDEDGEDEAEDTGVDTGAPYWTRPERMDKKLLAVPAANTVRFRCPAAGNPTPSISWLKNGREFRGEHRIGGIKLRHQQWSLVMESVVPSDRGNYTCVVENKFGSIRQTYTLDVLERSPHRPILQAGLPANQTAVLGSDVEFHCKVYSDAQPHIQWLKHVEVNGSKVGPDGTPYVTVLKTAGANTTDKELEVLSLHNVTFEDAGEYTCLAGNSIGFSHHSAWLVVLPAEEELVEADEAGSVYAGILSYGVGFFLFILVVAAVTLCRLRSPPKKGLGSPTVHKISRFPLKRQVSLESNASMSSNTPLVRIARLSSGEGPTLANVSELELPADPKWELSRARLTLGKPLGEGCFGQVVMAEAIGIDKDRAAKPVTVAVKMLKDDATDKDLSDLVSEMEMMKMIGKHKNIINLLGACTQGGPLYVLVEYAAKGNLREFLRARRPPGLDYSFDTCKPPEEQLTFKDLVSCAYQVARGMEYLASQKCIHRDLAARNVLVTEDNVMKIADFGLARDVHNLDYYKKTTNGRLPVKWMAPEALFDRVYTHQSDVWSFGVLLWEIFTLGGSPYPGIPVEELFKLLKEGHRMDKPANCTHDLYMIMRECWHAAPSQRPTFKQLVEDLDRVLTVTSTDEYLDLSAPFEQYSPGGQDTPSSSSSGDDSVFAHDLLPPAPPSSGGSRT

[26] = biological target: HIPK1(h) (Homo sapiens, UniProt Q86Z02); assay: Upstate kinase activity inhibition assay HIPK1(h); conditions: 40 min, read-out: percentage of enzyme activity that remains
Sequence of HIPK1(h) (Q86Z02 whole entry): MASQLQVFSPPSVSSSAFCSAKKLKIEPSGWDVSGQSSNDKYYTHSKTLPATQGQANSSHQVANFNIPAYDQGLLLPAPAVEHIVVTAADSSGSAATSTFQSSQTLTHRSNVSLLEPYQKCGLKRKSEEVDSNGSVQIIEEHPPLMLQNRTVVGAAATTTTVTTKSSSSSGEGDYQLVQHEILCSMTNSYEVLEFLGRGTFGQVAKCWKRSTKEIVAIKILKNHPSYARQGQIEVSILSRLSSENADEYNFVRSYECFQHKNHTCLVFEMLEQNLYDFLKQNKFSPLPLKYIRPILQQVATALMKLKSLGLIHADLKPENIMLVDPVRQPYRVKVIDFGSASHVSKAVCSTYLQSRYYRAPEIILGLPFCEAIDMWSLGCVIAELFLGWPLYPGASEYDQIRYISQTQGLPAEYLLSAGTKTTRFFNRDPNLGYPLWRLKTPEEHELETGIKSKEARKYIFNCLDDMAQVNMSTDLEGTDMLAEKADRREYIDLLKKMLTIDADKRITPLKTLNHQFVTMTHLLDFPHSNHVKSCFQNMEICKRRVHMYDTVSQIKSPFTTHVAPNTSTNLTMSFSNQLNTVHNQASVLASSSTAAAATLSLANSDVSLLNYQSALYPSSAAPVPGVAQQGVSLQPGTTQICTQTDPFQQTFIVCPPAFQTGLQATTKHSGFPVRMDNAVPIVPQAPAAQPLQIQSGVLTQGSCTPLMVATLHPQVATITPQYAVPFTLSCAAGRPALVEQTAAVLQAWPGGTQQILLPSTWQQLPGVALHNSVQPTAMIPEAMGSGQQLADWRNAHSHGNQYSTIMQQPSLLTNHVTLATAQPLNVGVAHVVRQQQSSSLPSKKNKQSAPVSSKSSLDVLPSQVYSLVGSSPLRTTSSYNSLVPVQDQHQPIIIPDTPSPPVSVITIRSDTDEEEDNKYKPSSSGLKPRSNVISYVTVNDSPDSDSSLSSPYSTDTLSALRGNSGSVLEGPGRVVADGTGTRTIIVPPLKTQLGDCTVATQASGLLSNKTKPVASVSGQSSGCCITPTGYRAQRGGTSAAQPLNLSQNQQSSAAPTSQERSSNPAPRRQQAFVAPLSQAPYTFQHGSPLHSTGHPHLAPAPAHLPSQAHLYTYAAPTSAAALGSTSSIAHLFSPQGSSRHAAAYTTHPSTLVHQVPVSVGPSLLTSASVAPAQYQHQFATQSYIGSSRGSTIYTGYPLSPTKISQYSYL

[27] = biological target: HIPK2(h) (Homo sapiens, UniProt Q9H2X6); assay: Upstate kinase activity inhibition assay HIPK2(h); conditions: 40 min, read-out: percentage of enzyme activity that remains
[28] = biological target: HIPK3(h) (Homo sapiens, UniProt Q9H422); assay: Upstate kinase activity inhibition assay HIPK3(h); conditions: 40 min, read-out: percentage of enzyme activity that remains
[29] = biological target: NEK11(h) (Homo sapiens, UniProt Q8NG66); assay: Upstate kinase activity inhibition assay NEK11(h); conditions: 40 min, read-out: percentage of enzyme activity that remains
[30] = biological target: PDGFRα(h) (Homo sapiens, UniProt P16234); assay: Upstate kinase activity inhibition assay PDGFRα(h); conditions: 40 min, read-out: percentage of enzyme activity that remains
[31] = biological target: CDK1/cyclinB(h) (Homo sapiens, UniProt P06493); assay: Upstate kinase activity inhibition assay CDK1/cyclinB(h); conditions: 40 min, read-out: percentage of enzyme activity that remains

T1 sequence (P30530 26-894): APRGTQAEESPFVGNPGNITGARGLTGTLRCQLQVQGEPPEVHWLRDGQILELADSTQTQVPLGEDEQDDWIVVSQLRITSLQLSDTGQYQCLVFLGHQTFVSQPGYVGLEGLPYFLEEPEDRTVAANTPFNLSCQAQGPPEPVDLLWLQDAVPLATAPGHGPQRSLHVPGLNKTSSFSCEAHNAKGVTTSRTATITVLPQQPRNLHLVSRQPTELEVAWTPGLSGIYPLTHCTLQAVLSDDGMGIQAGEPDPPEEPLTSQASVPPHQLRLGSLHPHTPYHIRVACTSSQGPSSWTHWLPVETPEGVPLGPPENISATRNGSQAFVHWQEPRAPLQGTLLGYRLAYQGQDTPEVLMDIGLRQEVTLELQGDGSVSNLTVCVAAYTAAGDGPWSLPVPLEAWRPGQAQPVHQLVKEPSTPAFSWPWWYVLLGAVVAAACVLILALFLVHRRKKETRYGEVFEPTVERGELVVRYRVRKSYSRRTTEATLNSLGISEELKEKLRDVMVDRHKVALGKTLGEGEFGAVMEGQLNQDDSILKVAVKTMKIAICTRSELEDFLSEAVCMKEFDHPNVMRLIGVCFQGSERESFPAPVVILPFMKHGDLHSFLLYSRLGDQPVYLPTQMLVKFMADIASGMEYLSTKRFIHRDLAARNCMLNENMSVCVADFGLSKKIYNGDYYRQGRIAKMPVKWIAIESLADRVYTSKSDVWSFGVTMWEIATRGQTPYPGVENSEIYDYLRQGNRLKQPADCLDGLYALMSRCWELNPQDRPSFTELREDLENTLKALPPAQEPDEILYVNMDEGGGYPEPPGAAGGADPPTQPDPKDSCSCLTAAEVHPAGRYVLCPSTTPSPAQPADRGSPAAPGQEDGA

Cc1cc(Nc2cc(N3CCN(C)CC3)nc(Sc3ccc(NC(=O)C4CC4)cc3)n2)n[nH]1 [Compound E, Cyclopropane carboxylic acid {4-[4-(4-methyl-piperazin-1-yl)-6-(5-methyl-2H-pyrazol-3-ylamino)-pyrimidin-2-ylsulphanyl]-phenyl}-amide]
remaining activity at 0.2 µM [1]: 79%
remaining activity at 4 µM [1]: 19%
percentage of enzyme activity that remains ([2]; 0.2 μM Compound E): 93%
percentage of enzyme activity that remains ([2]; 4 μM Compound E): 49%
percentage of enzyme activity that remains [3]: 99%
remaining activity at 0.2 µM [4]: 100%
percentage of enzyme activity that remains [5]: 57%
remaining activity at 4 µM [6]: 78%
remaining activity at 0.2 µM [7]: 91%
remaining activity at 4 µM [7]: 11%
remaining activity at 0.2 µM [8]: 100%
remaining activity at 4 µM [8]: 48%
remaining activity at 0.2 µM [9]: 98%
remaining activity at 4 µM [9]: 45%
percentage of enzyme activity that remains ([10]; 0.2 μM Compound E): 94%
percentage of enzyme activity that remains ([10]; 4 μM Compound E): 69%
remaining activity at 0.2 µM [11]: 71%
remaining activity at 4 µM [11]: 15%
remaining activity at 0.2 µM [12]: 92%
remaining activity at 4 µM [13]: 100%
remaining activity at 4 µM [14]: 92%
remaining activity at 0.2 µM [15]: 102%
remaining activity at 4 µM [15]: 90%
remaining activity at 0.2 µM [16]: 110%
remaining activity at 4 µM [16]: 110%
remaining activity at 0.2 µM [17]: 97%
remaining activity at 4 µM [17]: 96%
remaining activity at 0.2 µM [18]: 107%
remaining activity at 4 µM [18]: 90%
remaining activity at 0.2 µM [19]: 103%
remaining activity at 4 µM [19]: 124%
remaining activity at 0.2 µM [20]: 71%
remaining activity at 4 µM [20]: 12%
percentage of enzyme activity that remains ([21]; 0.2 μM Compound E): 99%
percentage of enzyme activity that remains ([21]; 4 μM Compound E): 103%
remaining activity at 0.2 µM [22]: 106%
remaining activity at 4 µM [22]: 117%
remaining activity at 0.2 µM [23]: 112%
remaining activity at 4 µM [23]: 109%
remaining activity at 0.2 µM [24]: 105%
remaining activity at 4 µM [24]: 85%
remaining activity at 0.2 µM [25]: 87%
remaining activity at 4 µM [25]: 29%
remaining activity at 0.2 µM [26]: 100%
remaining activity at 4 µM [26]: 100%
remaining activity at 0.2 µM [27]: 107%
remaining activity at 4 µM [27]: 110%
remaining activity at 0.2 µM [28]: 112%
remaining activity at 4 µM [28]: 95%
remaining activity at 0.2 µM [29]: 106%
remaining activity at 4 µM [29]: 106%
remaining activity at 0.2 µM [30]: 87%
remaining activity at 0.2 µM [31]: 108%
remaining activity at 4 µM [31]: 102%
